{
  "source": "patent US11707474B2",
  "about": "“Methods for treating acute myeloid leukemia and related conditions” (GlycoMimetics, Inc., priority 2018, dated 2023)",
  "key": {"[1]": {"test_system": "sE-selectin", "experiment": "Plasma soluble E-selectin ELISA during treatment", "format": "in vivo, human", "settings": "individual subjects; for sE-selectin AUEC Day 3 / sE-selectin AUEC Day 8 / sE-selectin AUEC Percent Change from Day 1, Day 3 / sE-selectin AUEC Percent Change from Day 1, Day 8: with MEC", "procedure": "Plasma sE-selectin was quantified using a commercially available sandwich format ELISA assay, in which a monoclonal antibody specific for sE-selectin has been pre-coated onto a microplate (Human sE-Selectin Platinum ELISA kit, eBioscience, cat. no. BMS205). Standards, samples and controls were pipetted into the wells of the microplate where they bind to the antibodies coated on the microplate. After a wash step, an HRP-conjugated anti-human sE-selectin antibody was added to the wells to bind the sE-selectin captured by the first antibody. After washing the plate wells to remove unbound HRP-conjugated anti-human sE-selectin antibody, a substrate solution reactive with HRP is added to the wells. Colored product formed in proportion to the amount of human sE-selectin present in the sample or standard. The color-producing reaction was stopped by addition of acid and absorbance of each well was measured at 450 nm. Six human serum samples from healthy donors served as the quality control samples. In addition, two control lyophilized plasma samples (high and low) included with the assay kit were also added to each run.\nThis response was seen both in mean levels and Area-Under-Effect-Curve (“AUEC”). Decrease from baseline to Day 8 (at the end of 6 days of treatment with a compound of Formula (I), given concurrently with MEC chemotherapy) was highly significant (P<0.0001) with no dose response. FIG. 11 illustrates decreasing mean levels of plasma soluble E-selectin over the treatment period in all dose groups, where doses were BID (i.e., the 5, 10, and 20 mg/kg “Per Dose” amounts of a compound of Formula (I) correspond to dosages of 10, 20, and 40 mg/kg per day, respectively)."}, "[2]": {"test_system": "MLL-AF9 leukemic cells", "experiment": "Surviving LSC after high dose cytarabine, limiting dilution transplantation", "format": "in vivo, mice", "settings": "with high dose cytarabine (2 x 900 mg/kg)", "procedure": "Wild-type mice were transplanted with MLL-AF9 leukemic cells and following engraftment, treated with high dose cytarabine (2 doses of 900 mg/kg at a 12-hour interval (1800 mg/kg total)) alone or in combination with a compound of Formula (I). Bone-marrow cells were harvested 24 hours after treatment and the surviving functional LSCs were quantified by limiting dilution transplantation assays in irradiated wild-type syngeneic recipients. The proportion of recipients who developed leukemia was used to calculate the number of surviving LSC by Poisson's distribution."}, "[3]": {"test_system": "relapsed/refractory type acute myeloid leukemia (AML)", "experiment": "Phase 1 clinical outcomes, relapsed/refractory AML, sodium salt infusion with MEC", "format": "in vivo", "settings": "R/R AML", "procedure": "Three cohorts of 6-7 human subjects with relapsed/refractory type acute myeloid leukemia (AML) each received a total of 15 infusions of 5, 10, or 20 mg/kg/dose of the compound of Formula (I), administered as the sodium salt, over 8 days with a nominal infusion duration of 20 minutes. The nominal infusion duration of 20 minutes was constant across cohorts (e.g., a slower infusion rate was used for the administration of the 5 mg/kg/dose arm than for the 10 mg/kg/dose arm). The formulation for the infusion solution was as follows: […]\nThe first dose of a compound of Formula (I) was administered 24 hours±1 hour prior to the first dose of MEC (mitoxantrone, etoposide, and cytarabine) induction chemotherapy as a sentinel dose to evaluate the effect of the compound of Formula (I) alone (i.e., a single dose of 5, 10, or 20 mg/kg the day before the first chemotherapy day). The compound of Formula (I) was then administered every 12 hours±1 hour on chemotherapy days, starting 2 hours prior to chemotherapy (i.e., 10, 20, or 40 mg/kg per day on chemotherapy days). […] MEC chemotherapy was administered on Days 2-6.\nThe clinical outcome for each subject was assessed at the time of count recovery following completion of induction chemotherapy. Subjects were assigned to one of four response groups: complete remission (“CR”); complete remission with incomplete count recovery (“CRi”); morphologic leukemia-free state (“MLFS”); persistent disease (“PD”). Complete remission was defined as bone marrow blasts <5%; absence of circulating blasts and blasts with Auer rods; absence of extramedullary disease; ANC ≥1.0×10^9/L and platelets ≥100,000×10^9/L. Complete remission with incomplete recovery was defined as: all CR criteria except for residual neutropenia (<1.0×10^9/L) or thrombocytopenia (<100,000×10^9/L). Morphologic leukemia-free state was defined as: bone marrow blasts <5%; absence of blasts with Auer rods; absence of extramedullary disease; no hematologic recovery required. Persistent disease was defined as: bone marrow blasts >5%."}, "[4]": {"test_system": "MLL-AF9-induced AML leukemia", "experiment": "Syngeneic MLL-AF9 induced AML leukemia survival model", "format": "in vivo, mice", "settings": "40 mg/kg BID 10 days with cytarabine/DOX", "procedure": "The impact of a compound of Formula (I) when administered adjunctively with cytarabine/DOX chemotherapy was evaluated in the syngeneic MLL-AF9 induced AML leukemia model.\nBone marrow from mice bearing MLL-AF9-inducted leukemia was harvested and enriched for kit+ cells and frozen in aliquots for subsequent transplant. Recipient mice were then injected with 3×10^4 leukemic cells 2 days after conditioning (Study day 0). Six days after leukemic injection, mice were randomized into 3 groups (n=8/group): a group administered a compound of Formula (I) at 40 mg/kg BID (i.e. 80 mg/kg per day) for 10 days, a group administered cytarabine/DOX (cytarabine at 100 mg/kg QD for 5 days, DOX at 1 mg/kg QD for 2 days), and a group administered a combined regimen of cytarabine/DOX/compound of Formula (I)."}, "[5]": {"experiment": "5-FU induced mucositis assay", "format": "in vivo, Mice (C57bl/6)", "settings": "20 mg/kg IP BID 4 days after second 5-FU injection", "procedure": "Mice (C57bl/6) were treated with 150 mg/kg of 5-fluorouracil (5-FU) intraperitoneal (IP) on days 0 and 10. After the second injection of 5-FU, the mice were treated with a compound of Formula (I) (20 mg/kg in saline, IP, BID (i.e. 40 mg/kg per day)) or saline alone (0.15 M NaCl) for 4 days. Mice were then sacrificed and the small intestines were removed and weighed to determine the degree of inflammation. […] FIG. 1B illustrates that intestinal erosion, villous loss, and macrophage infiltration after administration of chemotherapy were ameliorated by concurrent administration of a compound of Formula (I)."}},
  "note": "Several values for one entry are separate records, joined by “and”; a condition that tells them apart may be missing. Identical values can stand only once.",
  "data": [
    {"smiles": "CC[C@@H]1CC(C(=O)NCCNC(=O)CCOCCOCCOCCOCCOCCOCCOCCOCCOCCOCCOCCOC)C[C@@H](O[C@@H]2O[C@@H](CO)[C@H](O)C(O[C@@H](CC3CCCCC3)C(=O)O)C2NC(C)=O)C1OC1O[C@@H](C)C(O)[C@H](O)[C@@H]1O", "note": "(stereo partly drawn) [compound of Formula (I)]", "values": [
      {"measurement": "sE-selectin AUEC Day 1", "setting": "[1]; 5 mg/kg per dose", "value": "563.47 hrxng/mL and 1,605.18 hrxng/mL and 339.27 hrxng/mL and 328.40 hrxng/mL"},
      {"measurement": "sE-selectin AUEC Day 3", "setting": "[1]; 5 mg/kg per dose", "value": "494.30 hrxng/mL and 1,445.26 hrxng/mL and 275.71 hrxng/mL and 332.11 hrxng/mL"},
      {"measurement": "sE-selectin AUEC Day 8", "setting": "[1]; 5 mg/kg per dose", "value": "440.68 hrxng/mL and 728.47 hrxng/mL and 156.25 hrxng/mL and 161.11 hrxng/mL"},
      {"measurement": "sE-selectin AUEC Percent Change from Day 1, Day 3", "setting": "[1]; 5 mg/kg per dose", "value": "−12.28% and −9.96% and −18.74% and 1.13%"},
      {"measurement": "sE-selectin AUEC Percent Change from Day 1, Day 8", "setting": "[1]; 5 mg/kg per dose", "value": "−21.79% and −54.62% and −53.95% and −50.94%"},
      {"measurement": "sE-selectin AUEC Day 1", "setting": "[1]; 10 mg/kg per dose", "value": "338.36 hrxng/mL and 707.63 hrxng/mL and 325.19 hrxng/mL and 269.90 hrxng/mL and 230.35 hrxng/mL"},
      {"measurement": "sE-selectin AUEC Day 3", "setting": "[1]; 10 mg/kg per dose", "value": "313.04 hrxng/mL and 981.09 hrxng/mL and 298.31 hrxng/mL and 202.99 hrxng/mL and 185.98 hrxng/mL"},
      {"measurement": "sE-selectin AUEC Day 8", "setting": "[1]; 10 mg/kg per dose", "value": "168.71 hrxng/mL and 218.03 hrxng/mL and 25.51 hrxng/mL and 103.74 hrxng/mL and 158.91 hrxng/mL"},
      {"measurement": "sE-selectin AUEC Percent Change from Day 1, Day 3", "setting": "[1]; 10 mg/kg per dose", "value": "−7.48% and 38.64% and −8.26% and −24.79% and −19.26%"},
      {"measurement": "sE-selectin AUEC Percent Change from Day 1, Day 8", "setting": "[1]; 10 mg/kg per dose", "value": "−50.14% and −69.19% and −92.15% and −61.57% and −31.01%"},
      {"measurement": "sE-selectin AUEC Day 1", "setting": "[1]; 20 mg/kg per dose", "value": "2,206.19 hrxng/mL and 750.41 hrxng/mL and 202.19 hrxng/mL"},
      {"measurement": "sE-selectin AUEC Day 3", "setting": "[1]; 20 mg/kg per dose", "value": "1,743.61 hrxng/mL and 632.82 hrxng/mL and 163.18 hrxng/mL"},
      {"measurement": "sE-selectin AUEC Day 8", "setting": "[1]; 20 mg/kg per dose", "value": "956.57 hrxng/mL and 294.47 hrxng/mL and 31.49 hrxng/mL"},
      {"measurement": "sE-selectin AUEC Percent Change from Day 1, Day 3", "setting": "[1]; 20 mg/kg per dose", "value": "−20.97% and −15.67% and −19.30%"},
      {"measurement": "sE-selectin AUEC Percent Change from Day 1, Day 8", "setting": "[1]; 20 mg/kg per dose", "value": "−56.64% and −60.76% and −84.43%"},
      {"measurement": "increase of sensitivity of LSC to cytarabine treatment", "setting": "[2]", "value": "approximately 20 fold"},
      {"measurement": "CR with incomplete recovery (CRi)", "setting": "[3]; 10 mg/kg/dose", "value": 0, "unit": "n"},
      {"measurement": "Morphologic Leukemia-Free State (MLFS)", "setting": "[3]; 10 mg/kg/dose", "value": 0, "unit": "n"},
      {"measurement": "CR with incomplete recovery (CRi)", "setting": "[3]; 20 mg/kg/dose", "value": 0, "unit": "n"},
      {"measurement": "Morphologic Leukemia-Free State (MLFS)", "setting": "[3]; 20 mg/kg/dose", "value": 0, "unit": "n"},
      {"measurement": "All-Cause Mortality 30 days", "setting": "[3]; Phase 1", "value": 0, "unit": "n"},
      {"measurement": "CR/CRi Rate: Cytogenetics (SWOG) Favorable risk", "setting": "[3]; Phase 1", "value": 0, "unit": "n"},
      {"measurement": "CR/CRi Rate: FLT3-ITD mutated", "setting": "[3]; Phase 1", "value": 0, "unit": "n"},
      {"measurement": "CR/CRi Rate: Relapsed ≥12-<24 months", "setting": "[3]; Phase 1", "value": 0, "unit": "n"},
      {"measurement": "Partial Remission (PR)", "setting": "[3]; Phase 1", "value": 0, "unit": "n"},
      {"measurement": "CR Rate: Cytogenetics Favorable risk", "setting": "[3]; Phase 1 subgroup", "value": 0, "unit": "n"},
      {"measurement": "MST", "setting": "[4]", "value": 41, "unit": "days"},
      {"measurement": "increased lifespan", "setting": "[4]", "value": 64, "unit": "%"},
      {"measurement": "gastrointestinal mucositis as measured by intestinal weight", "setting": "[5]", "value": "protects against chemotherapy induced gastrointestinal mucositis"},
      {"measurement": "intestinal erosion, villous loss, and macrophage infiltration", "setting": "[5]", "value": "ameliorated"}
    ]}
  ]
}
